Here are results for 9 molecules from patent publication US8754242B2, “Herbicides” (Syngenta Crop Protection LLC, priority 2007, dated 2014).

What all share (assay type): in vivo
For experiment [1], the system named is Setaria faberi (SETFA). Nature of the experiment: Test Example 1 post-emergence herbicidal activity. The note with it: 360 h, rate 125 g/ha, evaluated 15 days later, read-out: Post-emergence activity SETFA (100=total damage to plant; 0=no damage to plant). In a few lines:
(§1)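 Pots sown in standard soil were sprayed 1 day (pre-emergence) or 10 days (post-emergence) after sowing with an aqueous spray from an acetone/Emulsogen EL/N-methylpyrrolidone-based formulation. Visual damage was scored 20 days (pre) or 15 days (post) later in the greenhouse, 0 = none to 100 = total.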

Experiment [2] concerns Alopecurus myosuroides (ALOMY). Nature of the experiment: Test Example 1 post-emergence herbicidal activity. Particulars: 360 h, rate 125 g/ha, evaluated 15 days later, read-out: Post-emergence activity ALOMY (100=total damage to plant; 0=no damage to plant). In short, it runs like this:
as §1

The test system of experiment [3] is Lolium perenne (LOLPE). Nature of the experiment: Test Example 1 post-emergence herbicidal activity. The note with it: 360 h, rate 125 g/ha, evaluated 15 days later, read-out: Post-emergence activity LOLPE (100=total damage to plant; 0=no damage to plant). In short, it runs like this: as §1
In experiment [4] the test system is Digitaria sanguinalis (DIGSA). As to the kind of experiment: Test Example 1 post-emergence herbicidal activity. Particulars: 360 h, rate 125 g/ha, evaluated 15 days later, read-out: Post-emergence activity DIGSA (100=total damage to plant; 0=no damage to plant). In short, it runs like this: as §1
For experiment [5], the system named is Avena fatua (AVEFA). As to the kind of experiment: Test Example 1 post-emergence herbicidal activity. Particulars: 360 h, rate 125 g/ha, evaluated 15 days later, read-out: Post-emergence activity AVEFA (100=total damage to plant; 0=no damage to plant). In short, it runs like this:
as §1

The test system of experiment [6] is Echinochloa crus-galli (ECHCG). As to the kind of experiment: Test Example 1 post-emergence herbicidal activity. The note with it: 360 h, rate 125 g/ha, evaluated 15 days later, read-out: Post-emergence activity ECHCG (100=total damage to plant; 0=no damage to plant). In short, it runs like this: as §1
The subject of experiment [7] is Setaria faberi (SETFA). As to the kind of experiment: Test Example 1 pre-emergence herbicidal activity. The note with it: Setaria faberi, 480 h, rate 250 g/ha, evaluated 20 days later, read-out: Pre-emergence activity SETFA (100=total damage to plant; 0=no damage to plant). In short, it runs like this:
as §1

In experiment [8] the test system is Alopecurus myosuroides (ALOMY). Nature of the experiment: Test Example 1 pre-emergence herbicidal activity. Particulars: Alopecurus myosuroides, 480 h, rate 250 g/ha, evaluated 20 days later, read-out: Pre-emergence activity ALOMY (100=total damage to plant; 0=no damage to plant). In a few lines:
as §1

Experiment [9] concerns Lolium perenne (LOLPE). As to the kind of experiment: Test Example 1 pre-emergence herbicidal activity. Particulars: Lolium perenne, 480 h, rate 250 g/ha, evaluated 20 days later, read-out: Pre-emergence activity LOLPE (100=total damage to plant; 0=no damage to plant). In a few lines: as §1
Experiment [10] has as its system Digitaria sanguinalis (DIGSA). Nature of the experiment: Test Example 1 pre-emergence herbicidal activity. The note with it: Digitaria sanguinalis, 480 h, rate 250 g/ha, evaluated 20 days later, read-out: Pre-emergence activity DIGSA (100=total damage to plant; 0=no damage to plant). In short, it runs like this:
as §1

Experiment [11] has as its system Avena fatua (AVEFA). As to the kind of experiment: Test Example 1 pre-emergence herbicidal activity. Particulars: Avena fatua, 480 h, rate 250 g/ha, evaluated 20 days later, read-out: Pre-emergence activity AVEFA (100=total damage to plant; 0=no damage to plant). In short, it runs like this: as §1
For experiment [12], the system named is Echinochloa crus-galli (ECHCG). As to the kind of experiment: Test Example 1 pre-emergence herbicidal activity. Particulars: Echinochloa crus-galli, 480 h, rate 250 g/ha, evaluated 20 days later, read-out: Pre-emergence activity ECHCG (100=total damage to plant; 0=no damage to plant). In short, it runs like this: as §1

With `CCc1cc(C)cc(CC)c1C1=C(O)[C@H]2[C@@H](C1=O)[C@@H]1CC[C@@]2(COC)O1` [Example T17], the pest or weed control at 125 g/ha in the experiment on Setaria faberi (SETFA) [1] is 100%; in experiment [2] it was 100%; in the experiment on Lolium perenne (LOLPE) [3], 90%; in experiment [4] it was 100%; with Avena fatua (AVEFA) [5] it was 100%; in [6] it was 100%. Further, the pest or weed control at 250 g/ha was determined as 100% with Setaria faberi (SETFA) [7]; 100% in experiment [8]; 100% in the experiment on Lolium perenne (LOLPE) [9]; 100% in experiment [10]; 90% in the experiment with Avena fatua (AVEFA) [11]; 100% in [12].
As for `CCOC[C@]12CC[C@H](O1)[C@@H]1C(=O)C(c3c(CC)cc(C)cc3CC)=C(O)[C@@H]12` [Example T18], the pest or weed control at 125 g/ha with Setaria faberi (SETFA) [1] was 100%; in [2] it was 100%; with Lolium perenne (LOLPE) [3], 80%; in [4], 100%; in the experiment on Avena fatua (AVEFA) [5], 100%; in [6], 100%. Also, the pest or weed control at 250 g/ha (with Setaria faberi (SETFA) [7]; in [8]; in the experiment with Lolium perenne (LOLPE) [9]; in [10]; in the experiment on Avena fatua (AVEFA) [11]; in [12]) was 100% in each case.
Regarding `CCOCOC[C@]12CC[C@H](O1)[C@@H]1C(=O)C(c3c(CC)cc(C)cc3CC)=C(O)[C@@H]12` [Example T19], the pest or weed control at 125 g/ha is 100% in the experiment with Setaria faberi (SETFA) [1]; 100% in experiment [2]; 90% with Lolium perenne (LOLPE) [3]; 90% in experiment [4]; 100% in the experiment on Avena fatua (AVEFA) [5]; 100% in [6]. Also, the pest or weed control at 250 g/ha with Setaria faberi (SETFA) [7] turned out to be 100%; in experiment [8] it was 100%; in the experiment with Lolium perenne (LOLPE) [9], 100%; in experiment [10] it was 90%; in the experiment with Avena fatua (AVEFA) [11], 90%; in [12], 100%.
`CCCNC(=O)OC[C@]12CC[C@H](O1)[C@@H]1C(=O)C(c3c(CC)cc(C)cc3CC)=C(O)[C@@H]12` [Example T21]: the pest or weed control at 125 g/ha with Setaria faberi (SETFA) [1] worked out at 60%; in experiment [2], 90%; in the experiment on Lolium perenne (LOLPE) [3] it was 70%; in experiment [4], 30%; in the experiment on Avena fatua (AVEFA) [5] it was 70%; in [6], 100%. Also, the pest or weed control at 250 g/ha in the experiment on Setaria faberi (SETFA) [7] was 70%; in experiment [8], 90%; in the experiment on Lolium perenne (LOLPE) [9], 80%; in experiment [10] it was 10%; in the experiment with Avena fatua (AVEFA) [11], 30%; in experiment [12], 80%.
Take `CCc1cc(C)cc(CC)c1C1=C(O)[C@H]2[C@@H](C1=O)[C@@H]1CC[C@@]2(COCC#N)O1` [Example T27]: the pest or weed control at 125 g/ha is 100% in the experiment with Setaria faberi (SETFA) [1]; 100% in experiment [2]; 80% in the experiment on Lolium perenne (LOLPE) [3]; 100% in experiment [4]; 90% in the experiment on Avena fatua (AVEFA) [5]; 100% in experiment [6]. In addition, the pest or weed control at 250 g/ha with Setaria faberi (SETFA) [7] turned out to be 100%; in experiment [8] it was 70%; in the experiment with Lolium perenne (LOLPE) [9], 70%; in [10], 90%; in the experiment with Avena fatua (AVEFA) [11], 70%; in experiment [12], 100%.
As to `Cc1cc(C)c(C2=C(O)[C@H]3[C@@H](C2=O)[C@]2(C)C=C[C@@]3(C)O2)c(C)c1` [Example T34], the pest or weed control at 125 g/ha in the experiment on Setaria faberi (SETFA) [1] is 80%; in [2] it was 40%; with Lolium perenne (LOLPE) [3], 30%; in experiment [4], 80%; in the experiment on Avena fatua (AVEFA) [5], 30%; in experiment [6], 80%. The pest or weed control at 250 g/ha in the experiment on Setaria faberi (SETFA) [7] came out at 80%; in experiment [8], 70%; with Lolium perenne (LOLPE) [9], 60%; in experiment [10] it was 60%; in the experiment on Avena fatua (AVEFA) [11], 30%; in experiment [12] it was 40%.
In the case of `CC[C@]12C=C[C@H](O1)[C@@H]1C(=O)C(c3c(C)cc(C)cc3C)=C(O)[C@@H]12` [Example T40], the pest or weed control at 125 g/ha with Setaria faberi (SETFA) [1] worked out at 70%; in [2], 40%; in the experiment with Lolium perenne (LOLPE) [3], 30%; in [4], 70%; in the experiment with Avena fatua (AVEFA) [5] it was 30%; in experiment [6] it was 70%. Besides, the pest or weed control at 250 g/ha with Setaria faberi (SETFA) [7] was determined as 40%; in experiment [8], 50%; in the experiment on Lolium perenne (LOLPE) [9], 60%; in experiment [10] it was 60%; in the experiment on Avena fatua (AVEFA) [11], 60%; in experiment [12], 40%.
Turning to `Cc1cc(C)c(C2=C(O)[C@@H]3[C@@H]4O[C@@H]([C@H](Br)[C@H]4Br)[C@@H]3C2=O)c(C)c1` [Example T46], the pest or weed control at 125 g/ha in the experiment on Setaria faberi (SETFA) [1] amounted to 60%; in [2], 0%; with Lolium perenne (LOLPE) [3], 0%; in experiment [4], 0%; in the experiment on Avena fatua (AVEFA) [5], 0%; in experiment [6], 80%. Also, the pest or weed control at 250 g/ha worked out at 30% in the experiment with Setaria faberi (SETFA) [7]; 10% in experiment [8]; 30% in the experiment with Lolium perenne (LOLPE) [9]; 20% in experiment [10]; 0% with Avena fatua (AVEFA) [11]; 70% in experiment [12].
Regarding `COC[C@H]1C[C@@H]2O[C@H]1[C@H]1C(O)=C(c3c(C)cc(C)cc3C)C(=O)[C@H]12` [Example T47], the pest or weed control at 125 g/ha with Setaria faberi (SETFA) [1] turned out to be 70%; in experiment [2] it was 100%; in the experiment on Lolium perenne (LOLPE) [3], 90%; in experiment [4], 60%; in the experiment on Avena fatua (AVEFA) [5], 90%; in [6] it was 100%. Besides, the pest or weed control at 250 g/ha came to 80% in the experiment on Setaria faberi (SETFA) [7]; 100% in experiment [8]; 100% in the experiment on Lolium perenne (LOLPE) [9]; 70% in experiment [10]; 80% in the experiment with Avena fatua (AVEFA) [11]; 100% in [12].
